pIC50: −log10 of the molar value. Values belong to the compound of their own block, whether it stands above or below them.
What was measured:
[1] = test system: SAD mouse red cells; settings: oral administration; cited from earlier work
[2] = test system: patients with sickle cell disease; settings: oral therapy; cited from earlier work
[3] = test system: MM-RU human melanoma cells; settings: SCID mice inoculated with MM-RU human melanoma cells, daily administration; cited from earlier work
[4] = target: Gardos channel of erythrocytes (Homo sapiens, UniProt O15554); assay: Gardos Channel Assay; settings: for inhibition at 10 µM: read-out: Gardos Channel Assay Inhibition
Chain of Gardos channel of erythrocytes (O15554 whole entry): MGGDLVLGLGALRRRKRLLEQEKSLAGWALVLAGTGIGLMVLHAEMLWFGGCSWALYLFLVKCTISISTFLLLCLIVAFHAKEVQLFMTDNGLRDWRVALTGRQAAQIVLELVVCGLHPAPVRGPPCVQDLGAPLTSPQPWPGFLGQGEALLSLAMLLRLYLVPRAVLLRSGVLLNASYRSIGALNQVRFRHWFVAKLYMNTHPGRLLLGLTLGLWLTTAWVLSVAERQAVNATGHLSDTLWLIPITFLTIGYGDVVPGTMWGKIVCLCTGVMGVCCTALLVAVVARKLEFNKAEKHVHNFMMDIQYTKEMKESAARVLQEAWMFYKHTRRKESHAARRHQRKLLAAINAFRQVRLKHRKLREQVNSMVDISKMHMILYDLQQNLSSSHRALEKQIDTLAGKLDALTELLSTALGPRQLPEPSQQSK

[5] = test system: NIH 3T3 mouse fibroblast cells; assay: Mitogenic Assay (mitogen-induced cell proliferation); settings: for inhibition at 10 µM: NIH3T3, read-out: Mitogenic Assay Inhibition; for pIC50: NIH3T3, read-out: Mitogenic Assay IC50
[6] = test system: HeLa; assay: SRB antiproliferative assay, HeLa; assay type: cell-based; settings: Homo sapiens, 120 h, Cervical, 5% FCS, 5 Day Incubation
Description: (§1) The cells were passaged using Trypsin (Gibco).

[7] = test system: CaSki; assay: SRB antiproliferative assay, CaSki; assay type: cell-based; settings: Homo sapiens, Ca-Ski, 120 h; Cervical; 5% FCS, 5 Day Incubation
Description: as §1

[8] = test system: MDA-MB-231; assay: SRB antiproliferative assay, MDA-MB-231; assay type: cell-based; settings: Homo sapiens, 120 h; Breast; 5% FCS, 5 Day Incubation; read-out: SRB IC50 MDA-MB-23
Description: as §1

[9] = test system: HTB174; assay: SRB antiproliferative assay, HTB174; assay type: cell-based; settings: 120 h; Lung; 5% FCS, 5 Day Incubation
Description: as §1

[10] = test system: HEPG2; assay: SRB antiproliferative assay, HEPG2; assay type: cell-based; settings: Homo sapiens, HepG2, 120 h; Hepatocel; 5% FCS, 5 Day Incubation
Description: as §1

[11] = test system: DU-145; assay: SRB antiproliferative assay, DU-145; assay type: cell-based; settings: Homo sapiens, DU-145, 120 h; Prostate; 5% FCS, 5 Day Incubation
Description: as §1

[12] = test system: SK-MEL-28; assay: SRB antiproliferative assay, SK-MEL-28; assay type: cell-based; settings: Homo sapiens, SK-MEL-28, 120 h; Melanoma; 5% FCS, 5 Day Incubation
Description: as §1

[13] = test system: HCT-15; assay: SRB antiproliferative assay, HCT-15; assay type: cell-based; settings: Homo sapiens, HCT-15, 120 h; Colon; 5% FCS, 5 Day Incubation
Description: as §1

[14] = test system: ACHN; assay: SRB antiproliferative assay, ACHN; assay type: cell-based; settings: Homo sapiens, 120 h, Renal, 5% FCS, 5 Day Incubation
Description: as §1

[15] = test system: SK-OV-3; assay: SRB antiproliferative assay, SK-OV-3; assay type: cell-based; settings: Homo sapiens, SK-OV-3, 120 h; Ovary; 5% FCS, 5 Day Incubation
Description: as §1

[16] = test system: HUVEC; assay: SRB assay, normal HUVEC cells; assay type: cell-based; settings: 120 h, Normal human, 5% FCS, 5 Day Incubation
Description: as §1

[17] = test system: GM; assay: SRB assay, normal GM cells; assay type: cell-based; settings: 120 h; Normal human; 5% FCS, 5 Day Incubation
Description: as §1

[18] = test system: 3T3; assay: SRB assay, normal 3T3 cells; assay type: cell-based; settings: NIH3T3, 120 h; Normal mouse; 5% FCS, 5 Day Incubation
Description: as §1

[19] = test system: L929; assay: SRB assay, normal L929 cells; assay type: cell-based; settings: L929, 120 h; Normal mouse; 5% FCS, 5 Day Incubation
Description: as §1

[20] = test system: MCF7; assay: SRB antiproliferative assay, MCF7; settings: Homo sapiens, MCF7, 120 h, read-out: SRB IC50 MCF7
[21] = test system: A549; assay: SRB antiproliferative assay, A549; settings: Homo sapiens, A549, 120 h, read-out: SRB IC50 A549
[22] = test system: MMRU cells; assay: SRB antiproliferative assay, MMRU; settings: Homo sapiens, 120 h, read-out: SRB IC50 MMRU
[23] = test system: HT29; assay: SRB antiproliferative assay, HT29; settings: Homo sapiens, HT-29, 120 h, read-out: SRB IC50 HT29

SMILES: Clc1ccccc1C(c1ccccc1)(c1ccccc1)n1ccnc1 [Clotrimazole]
cell density [1]: decreased
mean cell hemoglobin concentration (MCHC) [1]: decreased
red cell Gardos channel [1]: inhibition
red cell K+ content [1]: increased
Gardos channel [2]: induces inhibition
erythrocyte dehydration [2]: reduces
number of lung metastases observed [3]: significant reduction

SMILES: O/N=C1\CC(c2ccc(Cl)cc2)(c2ccc(Cl)cc2)c2ccc(Cl)cc21 [Compound 11]
pIC50 [6]: 5.29
pIC50 [7]: 5.15
pIC50 [8]: < 5.00
pIC50 [9]: 5.23
pIC50 [10]: 5.24
pIC50 [11]: < 5.00
pIC50 [12]: 5.26
pIC50 [13]: 5.18
pIC50 [14]: < 5.00
pIC50 [15]: < 5.00
pIC50 [16]: 5.19
pIC50 [17]: < 5.00
pIC50 [18]: < 5.00
pIC50 [19]: 5.07
melting point: 85 °C
inhibition at 10 µM [4]: 50%
pIC50 [20]: 5.36
pIC50 [21]: 5.06
pIC50 [22]: 5.21
pIC50 [23]: 5.17
pIC50 [5]: 5.47
inhibition at 10 µM [5]: 99%

SMILES: COC(=O)C1C(=O)c2ccccc2C1(c1ccccc1)c1ccccc1 (stereo not drawn) [Compound 15, 3,3-Diphenylindanone-2-methyl acetate]
melting point: 140 to 142 °C
pIC50 [4]: 5.54
inhibition at 10 µM [4]: 54.8%
pIC50 [5]: 5.12
inhibition at 10 µM [5]: 80%

The next lines start with results.

inhibition at 10 µM [4]: 67.3%
SMILES: N#CC1OC12CC(c1ccccc1)(c1ccccc1)c1ccccc12 (stereo not drawn) [Compound 5, spiro[3,3-diphenyl-2,3-dihydro(1H)indene-1,3′-2′-cyanooxirane]]
inhibition at 10 µM [5]: 29%

inhibition at 10 µM [4]: 35%
SMILES: C=CCOC1=C(CC=C)C(c2ccccc2)(c2ccccc2)c2ccccc21 [Compound 6]
pIC50 [5]: 5.47
inhibition at 10 µM [5]: 90%

melting point: 50 to 52 °C
inhibition at 10 µM [4]: 0%
SMILES: COC(=O)c1ccc(COC2CC(c3ccccc3)(c3ccccc3)c3ccccc32)cc1 (stereo not drawn) [Compound 17, 3,3-Diphenyl-1-indanyl α-(4-methyltoluate) ether]
inhibition at 10 µM [5]: 76%

melting point: 27 to 29 °C
inhibition at 10 µM [4]: 0%
SMILES: Clc1ccccc1COC1CC(c2ccccc2)(c2ccccc2)c2ccccc21 (stereo not drawn) [Compound 18, 3,3-Diphenyl-1-indanyl α-(2-chlorotoluyl) ether]
inhibition at 10 µM [5]: 73%

melting point: 124 to 126 °C
inhibition at 10 µM [4]: 0%
SMILES: OC1=C(CCC2OCCO2)C(c2ccccc2)(c2ccccc2)c2ccccc21 [Compound 20, 2-(Ethyl-2′-(1,3-dioxolane))-1-hydroxy-3,3-diphenylindene]
inhibition at 10 µM [5]: 81%

Reference: US6800658B2, “Substituted diphenyl indanone, indane and indole compounds and analogues thereof useful for the treatment of prevention of diseases characterized by abnormal cell proliferation” (Children's Medical Center Corporation, priority 1997, dated 2004)
